Test: Particle size measurement using a Malvern Particle Sizer S
Type: physicochemical
Conditions: crystalline particles of the calcium salt monohydrate prepared by sonocrystallisation
Experimental: Particle size of the two samples were measured using a Malvern Particle Sizer S. The (v0.5) values are as shown below: […]

Structure (SMILES)	D(v,0.5) particle size [microns]
C/C(=C/C(=O)c1ccccc1)N[C@@H](Cc1ccc(OCCc2nc(-c3ccccc3)oc2C)cc1)C(=O)[O-].C/C(=C/C(=O)c1ccccc1)N[C@@H](Cc1ccc(OCCc2nc(-c3ccccc3)oc2C)cc1)C(=O)[O-].[Ca+2] [Sample 1, calcium salt of (2S)-2-{[(Z)-1-methyl-3-oxo-3-phenyl-1-propenyl]amino}-3-{4-[2-(5-methyl-2-phenyl-1,3-oxazol-4-yl)ethoxy]phenyl}propanoic acid]	32.2
C/C(=C/C(=O)c1ccccc1)N[C@@H](Cc1ccc(OCCc2nc(-c3ccccc3)oc2C)cc1)C(=O)[O-].C/C(=C/C(=O)c1ccccc1)N[C@@H](Cc1ccc(OCCc2nc(-c3ccccc3)oc2C)cc1)C(=O)[O-].[Ca+2] [Sample 2, calcium salt of (2S)-2-{[(Z)-1-methyl-3-oxo-3-phenyl-1-propenyl]amino}-3-{4-[2-(5-methyl-2-phenyl-1,3-oxazol-4-yl)ethoxy]phenyl}propanoic acid]	42.3

Reference: US20040091407A1, “Novel process for preparing crystalline particles” (priority 2000, published 2004)
